Paper PMC10305218, “Expression of β-Glucosidases from the Yak Rumen in Lactic Acid Bacteria: A Genetic Engineering Approach” (Microorganisms, 2023)

Tested on: T1, Bgl
T1 construct: gene bglA; bglA-bglB fusion (usp45-bglA-usp45-bglB, pMG36e) secreted by L. lactis NZ9000; gene 2722 bp; printed about 75 kDa (less than the sum of both); supernatant / TCA-acetone precipitate
Experiment: DNS reducing sugar assay, Michaelis-Menten / Lineweaver-Burk fit
Assay type: biochemical, Paenibacillus polymyxa
Settings: 50 °C, pH 7.0; bacterial supernatant
Excerpt: DNS reducing sugar assay, Michaelis-Menten / Lineweaver-Burk fit on Bgl

Km: 34.8 µM
Structure (SMILES): OCc1ccccc1O[C@@H]1O[C@H](CO)[C@@H](O)[C@H](O)[C@H]1O [salicin]
